The source of these data is ChEMBL document CHEMBL5052846, “Pyridine derivatives as kif18a inhibitors” (2021).

pIC50: −log10 of the molar value.

The target in the test is T1, Kinesin-like protein KIF18A (Homo sapiens, UniProt Q8NI77).
T1 sequence (Q8NI77 whole entry): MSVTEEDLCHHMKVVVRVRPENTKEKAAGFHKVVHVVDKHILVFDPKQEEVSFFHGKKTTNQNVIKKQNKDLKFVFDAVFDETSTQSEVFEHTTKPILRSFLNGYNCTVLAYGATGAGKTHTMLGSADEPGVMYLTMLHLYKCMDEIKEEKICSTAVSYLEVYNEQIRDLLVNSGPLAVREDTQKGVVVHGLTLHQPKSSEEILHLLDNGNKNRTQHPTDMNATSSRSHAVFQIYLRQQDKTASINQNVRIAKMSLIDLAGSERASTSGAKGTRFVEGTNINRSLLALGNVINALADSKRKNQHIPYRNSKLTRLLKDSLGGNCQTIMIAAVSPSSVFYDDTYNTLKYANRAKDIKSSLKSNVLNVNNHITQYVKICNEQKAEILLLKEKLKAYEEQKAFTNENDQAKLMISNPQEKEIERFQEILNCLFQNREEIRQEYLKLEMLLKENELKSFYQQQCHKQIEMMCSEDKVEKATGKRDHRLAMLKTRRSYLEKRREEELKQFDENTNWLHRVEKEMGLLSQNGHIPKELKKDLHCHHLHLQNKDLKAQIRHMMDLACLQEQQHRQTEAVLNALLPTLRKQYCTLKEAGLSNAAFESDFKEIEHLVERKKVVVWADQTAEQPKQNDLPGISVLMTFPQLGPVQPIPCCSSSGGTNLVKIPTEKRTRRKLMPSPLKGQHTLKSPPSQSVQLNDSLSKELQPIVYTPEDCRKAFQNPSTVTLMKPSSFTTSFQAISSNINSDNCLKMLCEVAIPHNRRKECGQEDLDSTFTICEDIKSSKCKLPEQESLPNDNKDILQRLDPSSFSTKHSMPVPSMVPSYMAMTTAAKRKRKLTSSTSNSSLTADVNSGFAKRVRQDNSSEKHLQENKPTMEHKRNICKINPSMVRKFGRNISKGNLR
The test is described as follows: Inhibition of recombinant His-tagged human KIF18A (1 to 467 residues) expressed in baculovirus expression system assessed as inhibition of microtubule-stimulated ATPase activity preincubated for 15 mins followed by ATP addition and further incubated for 15 mins and measured after 40 mins by ADP-Glo reagent based assay. Background: ADP-Glo first removes unused ATP, then detects ADP through luciferase.

On to `CC(C)(C)NS(=O)(=O)c1cccc(NC(=O)c2ccc(N3CC[C@@H](O)C3)nc2N2CCC3(CC2)CC3)c1`, for which the pIC50 is 6.72.

What is called pIC50 is the IC50 on a negative log10 scale, so that one unit is a factor of ten.
